According to patent US8952024B2, “Herbicidal pyrimidone derivatives” (E I du Pont de Nemours and Company, priority 2009, dated 2015):
Like-named read-outs stand apart in the source and are kept apart here.

Legend:
Type in all cases: in vivo
[1] = test system: Italian ryegrass (Lolium multiflorum); experiment: Test B pre-/postemergence plant response
In short: (§1)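 Seeds sown in loam–sand blend were treated preemergence, and plants at 2–18 cm (1- to 4-leaf stage) in peat-based medium were treated postemergence; compounds were formulated in non-phytotoxic solvent with surfactant. After 13–15 days in greenhouse, response was visually rated against controls, 0 (no effect) to 100 (complete control).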

[2] = test system: galium (catchweed bedstraw, Galium aparine); experiment: Test B pre-/postemergence plant response; details: Preemergence
In short: as §1

[3] = test system: giant foxtail (Setaria faberii); experiment: Test B pre-/postemergence plant response; details: for pest or weed control at 31 g/ha: 31 g ai/ha, scale 0 to 100 (0 no effect, 100 complete control); for pest or weed control at 62 g/ha: 62 g ai/ha
In short: as §1

[4] = test system: nightshade (eastern black nightshade, Solanum ptycanthum); experiment: Test B pre-/postemergence plant response; details: Preemergence
In short: as §1

[5] = test system: ragweed (common ragweed, Ambrosia elatior); experiment: Test B pre-/postemergence plant response
In short: as §1

[6] = test system: sunflower (common oilseed sunflower, Helianthus annuus); experiment: Test B pre-/postemergence plant response; details: Preemergence
In short: as §1

[7] = test system: canarygrass (Phalaris minor); experiment: Test B postemergence plant response; details: Postemergence
In short: (§2)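 Plants at the 1- to 4-leaf stage (2 to 18 cm tall), grown in pots of peat moss/vermiculite medium with wetting agent and starter nutrients, received postemergence applications of test chemicals. After 13 to 15 days in a greenhouse, injury was rated visually against untreated controls on a 0 (no effect) to 100 (complete control) scale.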

[8] = test system: chickweed (Stellaria media); experiment: Test B postemergence plant response; details: Postemergence
In short: as §2

[9] = test system: windgrass (Apera spica-venti); experiment: Test B postemergence plant response; details: Apera spica-venti, post-emergence, 360 h; Postemergence, 125 g ai/ha; visual rating after 13 to 15 days, scale 0 (no effect) to 100 (complete control)
In short: as §2

[10] = test system: winter barley (Hordeum vulgare); experiment: Test B postemergence plant response; details: Postemergence
In short: as §2

[11] = test system: barnyardgrass (Echinochloa crus-galli); experiment: Test B flooded paddy test; details: Echinochloa crus-galli, 360 h
In short: (§3)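 Flooded-pot test: water raised to 3 cm above soil when treating, compound put in the water, level unchanged thereafter. Plants were at 2 leaves. Readout after 13 to 15 days, visual, relative to controls; 0 signifies no effect and 100 complete control.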

[12] = test system: ducksalad (Heteranthera limosa); experiment: Test B flooded paddy test; details: Heteranthera limosa, 360 h
In short: as §3

[13] = test system: rice (Oryza sativa); experiment: Test B flooded paddy test; details: Oryza sativa
In short: as §3

[14] = test system: umbrella sedge (Cyperus difformis); experiment: Test B flooded paddy test; details: Cyperus difformis, 360 h
In short: as §3

[15] = Preemergence, 125 g ai/ha, 0 to 100 scale
[16] = 31 g ai/ha, scale 0 to 100 (0 no effect, 100 complete control)
[17] = 62 g ai/ha, scale 0 to 100, 0 no effect, 100 complete control

Cc1c(F)cccc1-n1c(-c2ccccc2)ncc(C(=O)C2=C(O)CCCC2=O)c1=O [Compound 47, 3-(3-fluoro-2-methylphenyl)-5-[(2-hydroxy-6-oxo-1-cyclohexen-1-yl)carbonyl]-2-phenyl-4(3H)-pyrimidinone] gave a pest or weed control at 62 g/ha ([1]; Lolium multiflorum, post-emergence, Postemergence, 62 g ai/ha, scale 0 (no effect) to 100 (complete control), 13 to 15 days, read-out: Plant response rating, Ryegrass, Italian) of 30%, a pest or weed control at 125 g/ha ([1]; Lolium multiflorum, post-emergence, Postemergence, 125 g ai/ha, visual rating after 13 to 15 days, scale 0 (no effect) to 100 (complete control)) of 30% and a pest or weed control at 250 g/ha ([1]; Lolium multiflorum, pre-emergence, 250 g ai/ha, Preemergence, 0 to 100 scale, read-out: Plant response rating, Ryegrass, Italian) of 0%. The pest or weed control at 31 g/ha ([1]; Lolium multiflorum, pre-emergence, Preemergence, 31 g ai/ha, scale 0 to 100 (0 no effect, 100 complete control), read-out: Plant response rating, Ryegrass, Italian) was 0%, the “Ryegrass, Italian plant response rating” value [1, 15] was 0 and the “Plant response rating, Galium” value ([2]; 250 g ai/ha, 0 to 100 scale) was 95. For the same compound, the “Plant response rating, Galium” value [2, 16] was 50, the “Plant response rating, Galium” value [2, 17] was 50 and the “Galium plant response rating” value ([2]; 125 g ai/ha, 0 to 100 scale) was 50. For the same compound, the “Foxtail, Giant plant response rating” value ([3]; Postemergence, 250 g ai/ha, scale 0 to 100) was 98, the “Foxtail, Giant plant response rating” value [3, 15] was 85 and the pest or weed control at 31 g/ha ([3]; Setaria faberi, post-emergence, Postemergence, read-out: Plant response rating, Foxtail, Giant) was 90%. The pest or weed control at 62 g/ha ([3]; Setaria faberi, post-emergence, Postemergence, scale 0 (no effect) to 100 (complete control), 13 to 15 days, read-out: Plant response rating, Foxtail, Giant) was 98%, the pest or weed control at 125 g/ha ([3]; Setaria faberi, post-emergence, Postemergence, 125 g ai/ha, visual rating after 13 to 15 days, scale 0 (no effect) to 100 (complete control)) was 98% and the pest or weed control at 250 g/ha ([3]; Setaria faberi, pre-emergence, 250 g ai/ha, Preemergence, 0 to 100 scale, read-out: Plant response rating, Foxtail, Giant) was 100%. For the same compound, the pest or weed control at 31 g/ha ([3]; Setaria faberi, pre-emergence, Preemergence, read-out: Plant response rating, Foxtail, Giant) was 45%, the pest or weed control at 62 g/ha ([3]; Setaria faberi, pre-emergence, Preemergence, scale 0 to 100, 0 no effect, 100 complete control, read-out: Plant response rating, Foxtail, Giant) was 70% and the “Plant response rating, Nightshade” value ([4]; 250 g ai/ha, 0 to 100 scale) was 100. The “Plant response rating, Nightshade” value [4, 16] was 100, the “Plant response rating, Nightshade” value [4, 17] was 100 and the “Nightshade plant response rating” value ([4]; 125 g ai/ha, 0 to 100 scale) was 100. For the same compound, the pest or weed control at 62 g/ha ([5]; Ambrosia artemisiifolia, post-emergence, 360 h, Postemergence, 62 g ai/ha, scale 0 (no effect) to 100 (complete control), 13 to 15 days, read-out: Plant response rating, Ragweed) was 90%, the pest or weed control at 125 g/ha ([5]; Ambrosia artemisiifolia, post-emergence, 360 h, Postemergence, 125 g ai/ha, visual rating after 13 to 15 days, scale 0 (no effect) to 100 (complete control)) was 95% and the pest or weed control at 250 g/ha ([5]; Ambrosia artemisiifolia, pre-emergence, 360 h, 250 g ai/ha, Preemergence, 0 to 100 scale, read-out: Plant response rating, Ragweed) was 95%. The pest or weed control at 31 g/ha ([5]; Ambrosia artemisiifolia, pre-emergence, 360 h, Preemergence, 31 g ai/ha, scale 0 to 100 (0 no effect, 100 complete control), read-out: Plant response rating, Ragweed) was 45%, the “Ragweed plant response rating” value [5, 15] was 90 and the “Plant response rating, Sunflower” value ([6]; 250 g ai/ha, 0 to 100 scale) was 85. For the same compound, the “Plant response rating, Sunflower” value [6, 16] was 65, the “Sunflower plant response rating” value ([6]; 125 g ai/ha, 0 to 100 scale) was 80 and the pest or weed control at 31 g/ha ([7]; Phalaris minor, post-emergence, 360 h, 31 g ai/ha, scale 0 to 100 (0 no effect, 100 complete control), read-out: Plant response rating, Canarygrass) was 20%. The pest or weed control at 62 g/ha ([7]; Phalaris minor, post-emergence, 360 h, 62 g ai/ha, scale 0 (no effect) to 100 (complete control), 13 to 15 days, read-out: Plant response rating, Canarygrass) was 30%, the pest or weed control at 125 g/ha ([7]; Phalaris minor, post-emergence, 360 h, 125 g ai/ha, visual rating after 13 to 15 days, scale 0 (no effect) to 100 (complete control)) was 40% and the “Canarygrass plant response rating” value ([7]; 250 g ai/ha, scale 0 to 100) was 40. The “Chickweed plant response rating” value ([8]; 250 g ai/ha, scale 0 to 100) was 100, the pest or weed control at 31 g/ha ([8]; Stellaria media, post-emergence, 360 h, 31 g ai/ha, scale 0 to 100 (0 no effect, 100 complete control), read-out: Plant response rating, Chickweed) was 85% and the pest or weed control at 62 g/ha ([8]; Stellaria media, post-emergence, 360 h, 62 g ai/ha, scale 0 (no effect) to 100 (complete control), 13 to 15 days, read-out: Plant response rating, Chickweed) was 98%. The pest or weed control at 125 g/ha ([8]; Stellaria media, post-emergence, 360 h, 125 g ai/ha, visual rating after 13 to 15 days, scale 0 (no effect) to 100 (complete control)) was 100%, the pest or weed control at 125 g/ha [9] was 80% and the plant injury at 31 g/ha ([10]; Hordeum vulgare, post-emergence, 31 g ai/ha, scale 0 to 100 (0 no effect, 100 complete control), read-out: Plant response rating, Barley) was 5%. For the same compound, the plant injury at 62 g/ha ([10]; Hordeum vulgare, post-emergence, 62 g ai/ha, scale 0 (no effect) to 100 (complete control), 13 to 15 days, read-out: Plant response rating, Barley) was 10%, the plant injury at 125 g/ha ([10]; Hordeum vulgare, post-emergence, 125 g ai/ha, visual rating after 13 to 15 days, scale 0 (no effect) to 100 (complete control)) was 10% and the “Barley plant response rating” value ([10]; 250 g ai/ha, scale 0 to 100) was 35. For the same compound, the pest or weed control at 250 g/ha ([11]; 250 g ai/ha, flooded paddy test, visual rating on 0 to 100 scale (0 no effect, 100 complete control) after 13 to 15 days, read-out: Plant response rating, Flood, Barnyardgrass) was 20%, the pest or weed control at 62 g/ha ([11]; Flood (flooded paddy test), 62 g ai/ha, scale of 0 to 100 where 0 is no effect and 100 is complete control, 13 to 15 days, read-out: Plant response rating, Barnyardgrass) was 0% and the pest or weed control at 250 g/ha ([12]; 250 g ai/ha, flooded paddy test, visual rating on 0 to 100 scale (0 no effect, 100 complete control) after 13 to 15 days, read-out: Plant response rating, Flood, Ducksalad) was 95%. It also gave a pest or weed control at 62 g/ha ([12]; Flood (flooded paddy test), 62 g ai/ha, scale of 0 to 100 where 0 is no effect and 100 is complete control, 13 to 15 days, read-out: Plant response rating, Ducksalad) of 65%, a plant injury at 250 g/ha ([13]; 250 g ai/ha, flooded paddy test, visual rating on 0 to 100 scale (0 no effect, 100 complete control) after 13 to 15 days, read-out: Plant response rating, Flood, Rice) of 25% and a plant injury at 62 g/ha ([13]; Flood (flooded paddy test), 62 g ai/ha, scale of 0 to 100 where 0 is no effect and 100 is complete control, 13 to 15 days, read-out: Plant response rating, Rice) of 15%. For the same compound, the pest or weed control at 250 g/ha ([14]; 250 g ai/ha, flooded paddy test, visual rating on 0 to 100 scale (0 no effect, 100 complete control) after 13 to 15 days, read-out: Plant response rating, Flood, Sedge, Umbrella) was 85% and the pest or weed control at 62 g/ha ([14]; Flood (flooded paddy test), 62 g ai/ha, scale of 0 to 100 where 0 is no effect and 100 is complete control, 13 to 15 days, read-out: Plant response rating, Sedge, Umbrella) was 70%.
